Tests used:
Assay in all cases: Protein kinase inhibition assay
Format in all cases: biochemical
Arg(h) = Arg(h) (Homo sapiens, UniProt P42684); details: read-out: percent residual activity of Arg(h)
Experimental: (§1) Certain compounds were tested for activity in protein kinase inhibition assays. All substrates were dissolved and diluted to working stocks in de-ionized water, apart from histone H1 (10× working stock in 20 mM MOPS pH 7.0), PDKtide (10× working stock in 50 mM Tris pH 7.0) ATF2 (which is typically stored at a 20× working stock in 50 mM Tris pH 7.5, 150 mM NaCl, 0.1 mM EGTA, 0.03% Brij-35, 50% glycerol, 1 mM benzamidine, 0.2 mM PMSF and 0.1% R-mercaptoethanol), KKLNRTLSFAEPG (SEQ ID NO:203) and RRRLSFAEPG (SEQ ID NO:204) (50 mM HEPES pH 7.4) and GGEEEEYFELVKKKK (SEQ ID NO:205) (20 mM MOPS pH 7.0). All kinases were pre-diluted to a 10× working concentration prior to addition into the assay. The composition of the dilution buffer for each kinase is detailed below.
(§2) In a final reaction volume of 25 μl, Arg (h) (5-10 mU) is incubated with 8 mM MOPS pH 7.0, 0.2 mM EDTA, 50 μM EAIYAAPFAKKK (SEQ ID NO:206), 10 mM MgAcetate and [gamma-33P-ATP] (specific activity approx. 500 cpm/pmol, concentration as required). The reaction is initiated by the addition of the MgATP mix. After incubation for 40 minutes at room temperature, the reaction is stopped by the addition of 5 μl of a 3% phosphoric acid solution. 10 pi of the reaction is then spotted onto a P30 filtermat and washed three times for 5 minutes in 75 mM phosphoric acid and once in methanol prior to drying and scintillation counting.

cSRC(h) = cSRC(h) (Homo sapiens, UniProt P12931); details: read-out: percent residual activity of cSRC(h)
Sequence of cSRC(h) (P12931 whole entry): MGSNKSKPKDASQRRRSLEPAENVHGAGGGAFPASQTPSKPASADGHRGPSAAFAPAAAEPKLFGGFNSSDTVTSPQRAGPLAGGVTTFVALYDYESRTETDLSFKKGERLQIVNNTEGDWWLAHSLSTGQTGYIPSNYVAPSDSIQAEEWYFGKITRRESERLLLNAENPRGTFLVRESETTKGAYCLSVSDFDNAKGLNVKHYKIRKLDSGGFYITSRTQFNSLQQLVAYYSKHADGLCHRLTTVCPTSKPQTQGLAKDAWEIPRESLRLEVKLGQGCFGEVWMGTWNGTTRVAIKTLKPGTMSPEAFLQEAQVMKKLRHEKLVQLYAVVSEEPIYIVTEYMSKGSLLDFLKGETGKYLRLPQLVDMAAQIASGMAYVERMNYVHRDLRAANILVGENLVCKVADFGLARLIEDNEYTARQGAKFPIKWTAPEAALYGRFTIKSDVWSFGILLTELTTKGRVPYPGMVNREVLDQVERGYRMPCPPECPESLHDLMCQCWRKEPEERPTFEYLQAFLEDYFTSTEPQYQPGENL
Experimental: as §1
(§3) In a final reaction volume of 25 μl, cSRC (h) (5-10 mU) is incubated with 8 mM MOPS pH 7.0, 0.2 mM EDTA, 250 μM KVEKIGEGTYGVVYK (SEQ ID NO:211) (Cdc2 peptide), 10 mM MgAcetate and [y-33P-ATP] (specific activity approx. 500 cpm/pmol, concentration as required). The reaction is initiated by the addition of the MgATP mix. After incubation for 40 minutes at room temperature, the reaction is stopped by the addition of 5 μl of a 3% phosphoric acid solution. […]

FGFR3(h) = FGFR3(h) (Homo sapiens, UniProt P22607); details: read-out: percent residual activity of FGFR3(h)
Sequence of FGFR3(h) (P22607 23-806): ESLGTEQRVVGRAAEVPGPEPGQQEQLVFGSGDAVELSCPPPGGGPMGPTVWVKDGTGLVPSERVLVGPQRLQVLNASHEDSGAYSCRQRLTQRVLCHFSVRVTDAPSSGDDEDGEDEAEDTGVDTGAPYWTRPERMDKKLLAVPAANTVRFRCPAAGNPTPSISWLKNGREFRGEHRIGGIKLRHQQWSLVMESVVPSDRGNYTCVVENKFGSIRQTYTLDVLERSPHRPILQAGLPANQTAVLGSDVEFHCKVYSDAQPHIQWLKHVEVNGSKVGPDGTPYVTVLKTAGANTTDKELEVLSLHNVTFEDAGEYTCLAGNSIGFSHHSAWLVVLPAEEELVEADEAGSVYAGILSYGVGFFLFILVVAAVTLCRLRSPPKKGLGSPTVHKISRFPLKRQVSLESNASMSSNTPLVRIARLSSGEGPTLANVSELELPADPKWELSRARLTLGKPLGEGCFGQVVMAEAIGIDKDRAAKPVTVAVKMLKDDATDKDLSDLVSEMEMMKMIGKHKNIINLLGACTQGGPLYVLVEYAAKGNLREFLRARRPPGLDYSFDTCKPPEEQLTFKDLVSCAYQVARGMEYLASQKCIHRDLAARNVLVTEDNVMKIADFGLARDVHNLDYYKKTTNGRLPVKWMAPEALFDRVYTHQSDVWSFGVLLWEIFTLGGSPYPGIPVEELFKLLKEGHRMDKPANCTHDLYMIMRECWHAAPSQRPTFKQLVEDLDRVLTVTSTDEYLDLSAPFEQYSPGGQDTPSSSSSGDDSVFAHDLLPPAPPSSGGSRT
Experimental: as §1
as §2, with “FGFR3” for “Arg”, “0.1 mg/ml poly(Glu, Tyr) 4:1, 10 mM MnCl2,” for “50 μM EAIYAAPFAKKK (SEQ ID NO:206),”, “[y-33P-ATP]” for “[gamma-33P-ATP]”, “μl” for “pi”, “Filtermat A” for “P30 filtermat”

Fgr(h) = Fgr(h) (Homo sapiens, UniProt P09769); details: read-out: percent residual activity of Fgr(h)
Sequence of Fgr(h) (P09769 whole entry): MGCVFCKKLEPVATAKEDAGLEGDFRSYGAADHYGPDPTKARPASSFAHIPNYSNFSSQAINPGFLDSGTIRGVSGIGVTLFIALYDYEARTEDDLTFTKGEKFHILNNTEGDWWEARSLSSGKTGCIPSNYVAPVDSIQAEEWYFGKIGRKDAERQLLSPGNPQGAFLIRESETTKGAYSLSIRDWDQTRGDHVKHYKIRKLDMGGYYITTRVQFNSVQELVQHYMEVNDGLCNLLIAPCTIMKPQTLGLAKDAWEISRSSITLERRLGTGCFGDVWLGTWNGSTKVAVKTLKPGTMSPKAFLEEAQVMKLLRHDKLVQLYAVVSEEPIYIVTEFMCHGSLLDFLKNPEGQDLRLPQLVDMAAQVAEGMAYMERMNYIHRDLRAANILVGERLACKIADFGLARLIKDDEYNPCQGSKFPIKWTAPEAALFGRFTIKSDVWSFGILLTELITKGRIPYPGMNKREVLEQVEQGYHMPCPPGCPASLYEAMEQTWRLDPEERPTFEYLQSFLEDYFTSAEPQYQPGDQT
Experimental: as §1
as §2, with “Fgr” for “Arg”, “0.1 mg/ml poly(Glu, Tyr) 4:1,” for “50 μM EAIYAAPFAKKK (SEQ ID NO:206),”, “μl” for “pi”, “Filtermat A” for “P30 filtermat”

SGK3(h) = SGK3(h) (Homo sapiens, UniProt Q96BR1); details: read-out: percent residual activity of SGK3(h)
Sequence of SGK3(h) (Q96BR1 whole entry): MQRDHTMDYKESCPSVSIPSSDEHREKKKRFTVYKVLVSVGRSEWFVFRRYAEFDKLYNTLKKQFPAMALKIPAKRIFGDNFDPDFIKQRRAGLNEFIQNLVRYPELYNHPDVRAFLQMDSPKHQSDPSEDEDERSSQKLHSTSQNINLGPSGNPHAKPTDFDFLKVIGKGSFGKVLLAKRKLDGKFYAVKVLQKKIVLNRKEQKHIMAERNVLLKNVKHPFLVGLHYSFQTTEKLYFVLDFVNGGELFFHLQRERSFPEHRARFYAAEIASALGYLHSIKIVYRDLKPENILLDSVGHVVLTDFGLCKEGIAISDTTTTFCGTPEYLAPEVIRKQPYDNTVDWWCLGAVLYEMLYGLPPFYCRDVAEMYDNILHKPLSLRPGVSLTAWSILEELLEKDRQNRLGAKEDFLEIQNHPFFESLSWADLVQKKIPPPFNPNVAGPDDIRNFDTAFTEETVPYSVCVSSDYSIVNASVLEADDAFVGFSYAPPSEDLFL
Experimental: as §1
as §2, with “μl, SGK3” for “μl, Arg”, “EDTA, 250” for “EDTA, 50”, “μM GRPRTSSFAEGKK” for “μM EAIYAAPFAKKK”, “ID NO:226),” for “ID NO:206),”, “10 μl” for “10 pi”

Syk(h) = Syk(h) (Homo sapiens, UniProt P43405); details: read-out: percent residual activity of Syk(h)
Experimental: as §1
as §3, with “Syk” for “cSRC”, “50” for “8”, “Tris” for “MOPS”, “7.5, 0.1” for “7.0, 0.2”, “EGTA, 0.1 mM Na3VO4, 0.1% R-mercaptoethanol, 0.1 mg/ml poly(Glu, Tyr) 4:1,” for “EDTA, 250 μM KVEKIGEGTYGVVYK (SEQ ID NO:211) (Cdc2 peptide),”, “[gamma-33P-ATP]” for “[y-33P-ATP]”

Sequence of Arg(h) (P42684 whole entry): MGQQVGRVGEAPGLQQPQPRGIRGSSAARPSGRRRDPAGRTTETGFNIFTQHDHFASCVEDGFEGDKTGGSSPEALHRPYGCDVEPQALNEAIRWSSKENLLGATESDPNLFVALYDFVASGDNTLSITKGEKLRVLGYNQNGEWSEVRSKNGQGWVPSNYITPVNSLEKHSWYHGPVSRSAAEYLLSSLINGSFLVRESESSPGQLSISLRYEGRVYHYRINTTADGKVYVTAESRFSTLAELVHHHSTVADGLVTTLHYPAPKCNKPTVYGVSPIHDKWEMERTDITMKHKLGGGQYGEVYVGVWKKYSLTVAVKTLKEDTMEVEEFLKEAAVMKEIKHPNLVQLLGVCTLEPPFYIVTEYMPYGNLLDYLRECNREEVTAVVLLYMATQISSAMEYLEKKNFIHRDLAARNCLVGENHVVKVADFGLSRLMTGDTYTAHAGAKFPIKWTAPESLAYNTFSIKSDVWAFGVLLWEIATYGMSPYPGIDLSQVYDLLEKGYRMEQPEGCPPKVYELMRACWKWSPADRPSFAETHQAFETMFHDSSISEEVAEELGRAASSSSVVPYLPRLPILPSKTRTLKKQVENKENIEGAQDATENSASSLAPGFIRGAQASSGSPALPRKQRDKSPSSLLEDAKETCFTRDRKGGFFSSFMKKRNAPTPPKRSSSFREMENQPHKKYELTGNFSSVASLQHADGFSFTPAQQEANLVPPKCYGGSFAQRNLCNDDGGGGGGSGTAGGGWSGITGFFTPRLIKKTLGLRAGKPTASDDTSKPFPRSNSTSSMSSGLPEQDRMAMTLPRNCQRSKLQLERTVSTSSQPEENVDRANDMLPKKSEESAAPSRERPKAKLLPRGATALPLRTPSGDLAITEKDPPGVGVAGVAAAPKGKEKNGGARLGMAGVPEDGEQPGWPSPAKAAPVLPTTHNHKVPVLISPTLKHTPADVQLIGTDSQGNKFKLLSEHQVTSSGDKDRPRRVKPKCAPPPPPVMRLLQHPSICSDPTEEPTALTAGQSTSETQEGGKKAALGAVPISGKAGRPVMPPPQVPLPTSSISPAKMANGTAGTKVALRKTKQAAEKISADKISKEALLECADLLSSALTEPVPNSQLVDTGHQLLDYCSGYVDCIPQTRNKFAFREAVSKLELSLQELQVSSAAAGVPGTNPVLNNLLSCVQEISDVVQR

remaining activity at 2.5 µM (Arg(h)) | remaining activity at 2.5 µM (cSRC(h)) | remaining activity at 2.5 µM (FGFR3(h)) | remaining activity at 2.5 µM (Fgr(h)) | remaining activity at 2.5 µM (SGK3(h)) | remaining activity at 2.5 µM (Syk(h)) | Structure (SMILES)
46% | 33% | 101% | 78% | 44% | 67% | CN1CCCC1CCNC(=O)c1cn2c3c(c(N4CCC(c5cnccn5)C4)c(F)cc3c1=O)Oc1cc3ccccc3cc1-2 (stereo not drawn) [Compound A-1]
94% | 137% | 116% | 98% | 128% | 111% | CC(=O)N1CCN(c2ccc3c(=O)c(C(=O)NCCN4CCCC4)c4n(C)c5ccccc5n4c3n2)CC1 [Compound B-1]
